Data published in PMC6718736, “Validation of in vitro methods for human cytochrome P450 enzyme induction: Outcome of a multi-laboratory study” (Toxicology in Vitro, 2019).
Counter-ions that a name gives are not always drawn. Like-named read-outs stand apart in the source and are kept apart here.

Key:
CYP2B6 [1] = conditions: cited from earlier work
[2] = Solubility by nephelometry (EURL ECVAM); assay type: physicochemical
Text: In addition to the visual inspection performed by the validation laboratories as described in the SOP, EURL ECVAM introduced nephelometry for systematic solubility determination of the 13 validation set chemicals. Nephelometry uses a laser beam and the principle of Tyndall effect light scatter to detect turbidity due to insolubility. The nephelometer method used formazin as reference item (1, 5, 10 and 20 nephelometric turbidity units (NTU)) to calculate the relative turbidity (RTU) of the validation set of chemicals. To the naked eye, 20 NTU is perceptible, while the nephelometer was sensitive to 5 NTU, with 1 NTU equivalent to background (solvent/medium blank).

CYP = CYP isoforms induced; ref Abadie et al. (2009), Richert et al. (2010), Preissner et al. (2010), Hoffmann et al. (2014); cited from earlier work
CYP2B6 [3] = test: CYP2B6 enzyme induction assay in cryopreserved primary human hepatocytes (PHH); assay type: in vitro ADME; conditions: for Assigned classification CYP2B6: PHH;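 as to Assigned classification CYP2B6: code 1 means positive inducer and 0 means non-inducer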
CYP3A4 [4] = conditions: cited from earlier work
CYP1A2 [5] = test: CYP1A2 enzyme induction assay in cryopreserved primary human hepatocytes (PHH); assay type: in vitro ADME; conditions: for Prediction in vivo inducer / Induction in vitro: CYP1A2, PHH; for Prediction in vivo inducer: Cmax/F2 >0.5 criterion; for Induction in vitro: positive in one donor in each of the three laboratories; for Assigned classification CYP1A2: PHH;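 as to Assigned classification CYP1A2: code 1 means positive inducer and 0 means non-inducer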
CYP3A4 [6] = test: CYP3A4 enzyme induction assay in cryopreserved primary human hepatocytes (PHH); conditions: for Assigned classification CYP3A4: PHH
[7] = Solubility by visual inspection (DMSO stock solution and assay medium); assay type: physicochemical; conditions: assay medium
Procedure: The SOPs relied on visual inspection for solubility observation. […] The absence of precipitation in the medium was checked pre- and post-incubation (24 hours) by centrifugation of the sample and observation of any precipitation (pellet residue).

[8] = cited from earlier work
CYP1A2 [9] = conditions: CYP1A2, human; ref Table 1; cited from earlier work
CYP1A2 [10] = test: CYP1A2 enzyme induction assay in cryopreserved HepaRG cells (phenacetin probe, LC/MS); assay type: in vitro ADME, human; conditions: for Assigned classification CYP1A2: HepaRG
CYP2B6 [11] = test: CYP2B6 enzyme induction assay in cryopreserved HepaRG cells (bupropion probe, LC/MS); assay type: in vitro ADME, human; conditions: for Prediction in vivo inducer: Cmax/F2 >0.5 criterion; for Assigned classification CYP2B6: HepaRG
CYP3A4 [12] = test: CYP3A4 enzyme induction assay in cryopreserved HepaRG cells (midazolam probe, LC/MS); assay type: in vitro ADME, human; conditions: for Assigned classification CYP3A4: HepaRG
[13] = CYP2B6, human in vivo reference classification
[14] = human in vivo, CYP named without remark = induced, ref references in the cell, Washington University database, Hoffmann et al. (2014), Pelkonen et al. (2008), Hukkanen et al. (2012)
[15] = CYP2B6, PHH, Cmax/F2 >0.5 criterion
[16] = human in vivo plasma concentration, normal dose
[17] = human in vivo, normal dose (Table 10)

O=C1Nc2ccc(Cl)cc2[C@@](C#CC2CC2)(C(F)(F)F)O1 [Efavirenz]
Induction in vivo (CYP2B6 [1]; [13]): Yes
CYP induction in vivo literature reference: CYP2B6 (CYP2B6 [1]; [14]): CYP2B6
nephelometry finding in assay medium ([2]; 40 μg/ml, the two media): insoluble suspensions
HepaRG medium stability ([2]; ECVAM nephelometry, HepaRG medium, ^2 = solubility limit): 20 µg/mL
PHH medium stability ([2]; ECVAM nephelometry, ^2 = solubility limit): 40^2 μg/mL
PHH medium stability ([2]; ECVAM nephelometry, ^2 = solubility limit, listed as efavirenz): 40 µg/mL
CYP induction in vitro (human hepatocytes) (CYP): CYP2B6, CYP3A4
F2 (CYP2B6 [3]; CYP2B6, PHH): 4.69 µM
Induction in vitro (CYP2B6 [3]; CYP2B6, PHH): Yes
Prediction in vivo inducer (CYP2B6 [3]; CYP2B6, PHH): Yes
Prediction in vivo inducer (CYP2B6 [3]; [15]): positive
Assigned classification CYP2B6 (CYP2B6 [3]; Lab 1, batch 0 6 A): 1
Assigned classification CYP2B6 (CYP2B6 [3]; Lab 1, batch 4 0 8): 1
Assigned classification CYP2B6 (CYP2B6 [3]; Lab 1, batch 8 0 8): 1
Assigned classification CYP2B6 (CYP2B6 [3]; Lab 2, batch 0 6 A): 1
Assigned classification CYP2B6 (CYP2B6 [3]; Lab 2, batch 4 0 8): 1
Assigned classification CYP2B6 (CYP2B6 [3]; Lab 2, batch 8 0 8): 0
Assigned classification CYP2B6 (CYP2B6 [3]; Lab 3, batch 0 6 A): 1
Assigned classification CYP2B6 (CYP2B6 [3]; Lab 3, batch 4 0 8): 0
Assigned classification CYP2B6 (CYP2B6 [3]; Lab 3, batch 8 0 8): 0
Induction in vivo (CYP3A4 [4]; CYP3A4, human in vivo reference classification (Table 12)): Yes
CYP induction in vivo literature reference: CYP3A4 (CYP3A4 [4]; [14]): CYP3A4
Prediction in vivo inducer (CYP1A2 [5]): No
Prediction in vivo inducer (CYP1A2 [5]; listed as efavirenz): non-inducers
Induction in vitro (CYP1A2 [5]): No
Assigned classification CYP1A2 (CYP1A2 [5]; Lab 1, batch 0 6 A): 0
Assigned classification CYP1A2 (CYP1A2 [5]; Lab 1, batch 4 0 8): 0
Assigned classification CYP1A2 (CYP1A2 [5]; Lab 1, batch 8 0 8): 0
Assigned classification CYP1A2 (CYP1A2 [5]; Lab 2, batch 0 6 A): 0
Assigned classification CYP1A2 (CYP1A2 [5]; Lab 2, batch 4 0 8): 0
Assigned classification CYP1A2 (CYP1A2 [5]; Lab 2, batch 8 0 8): 0
Assigned classification CYP1A2 (CYP1A2 [5]; Lab 3, batch 0 6 A): 0
Assigned classification CYP1A2 (CYP1A2 [5]; Lab 3, batch 4 0 8): 0
Assigned classification CYP1A2 (CYP1A2 [5]; Lab 3, batch 8 0 8): 0
F2 (CYP3A4 [6]; CYP3A4, PHH): 14.1 µM
Induction in vitro (CYP3A4 [6]; CYP3A4, PHH): Yes
Prediction in vivo inducer (CYP3A4 [6]; CYP3A4, PHH): Yes
Assigned classification CYP3A4 (CYP3A4 [6]; Lab 1, batch 0 6 A): 1
Assigned classification CYP3A4 (CYP3A4 [6]; Lab 1, batch 4 0 8): 1
Assigned classification CYP3A4 (CYP3A4 [6]; Lab 1, batch 8 0 8): 1
Assigned classification CYP3A4 (CYP3A4 [6]; Lab 2, batch 0 6 A): 1
Assigned classification CYP3A4 (CYP3A4 [6]; Lab 2, batch 4 0 8): 1
Assigned classification CYP3A4 (CYP3A4 [6]; Lab 2, batch 8 0 8): 1
Assigned classification CYP3A4 (CYP3A4 [6]; Lab 3, batch 0 6 A): 1
Assigned classification CYP3A4 (CYP3A4 [6]; Lab 3, batch 4 0 8): 1
Assigned classification CYP3A4 (CYP3A4 [6]; Lab 3, batch 8 0 8): 1
HepaRG medium stability ([7]; Lab 1, visual observation): 20 µg/mL
HepaRG medium stability ([7]; Lab 2, visual observation): 40 µg/mL
HepaRG medium stability ([7]; Lab 3, visual observation): 40 µg/mL
PHH medium stability ([7]; Lab 4, visual observation): 40 µg/mL
PHH medium stability ([7]; Lab 5, visual observation): 40 µg/mL
PHH medium stability ([7]; Lab 6, visual observation): 40 µg/mL
Cmax [8, 16]: 9.1 to 12.6 µM
Cmax [8, 17]: 9.1 to 12.6 µM

CC(C)NCC(O)c1ccc(NS(C)(=O)=O)cc1 (stereo not drawn) [Sotalol hydrochloride]
Induction in vivo (CYP2B6 [1]; [13]): No
Induction in vivo (CYP2B6 [1]; CYP2B6, human, ref Table 1): No
CYP induction in vitro (human hepatocytes) (CYP): No
Induction in vitro (CYP2B6 [3]; CYP2B6, PHH): No
Prediction in vivo inducer (CYP2B6 [3]; CYP2B6, PHH): No
Prediction in vivo inducer (CYP2B6 [3]; [15]): negative
Assigned classification CYP2B6 (CYP2B6 [3]; Lab 1, batch 0 6 A): 0
Assigned classification CYP2B6 (CYP2B6 [3]; Lab 1, batch 4 0 8): 0
Assigned classification CYP2B6 (CYP2B6 [3]; Lab 1, batch 8 0 8): 0
Assigned classification CYP2B6 (CYP2B6 [3]; Lab 2, batch 0 6 A): 0
Assigned classification CYP2B6 (CYP2B6 [3]; Lab 2, batch 4 0 8): 0
Assigned classification CYP2B6 (CYP2B6 [3]; Lab 2, batch 8 0 8): 0
Assigned classification CYP2B6 (CYP2B6 [3]; Lab 3, batch 0 6 A): 1
Assigned classification CYP2B6 (CYP2B6 [3]; Lab 3, batch 4 0 8): 0
Assigned classification CYP2B6 (CYP2B6 [3]; Lab 3, batch 8 0 8): 0
Induction in vivo (CYP3A4 [4]; CYP3A4, human in vivo reference classification (Table 11)): No
Prediction in vivo inducer (CYP1A2 [5]): No
Induction in vitro (CYP1A2 [5]): No
Assigned classification CYP1A2 (CYP1A2 [5]; Lab 1, batch 0 6 A): 0
Assigned classification CYP1A2 (CYP1A2 [5]; Lab 1, batch 4 0 8): 0
Assigned classification CYP1A2 (CYP1A2 [5]; Lab 1, batch 8 0 8): 0
Assigned classification CYP1A2 (CYP1A2 [5]; Lab 2, batch 0 6 A): 0
Assigned classification CYP1A2 (CYP1A2 [5]; Lab 2, batch 4 0 8): 0
Assigned classification CYP1A2 (CYP1A2 [5]; Lab 2, batch 8 0 8): 0
Assigned classification CYP1A2 (CYP1A2 [5]; Lab 3, batch 0 6 A): 0
Assigned classification CYP1A2 (CYP1A2 [5]; Lab 3, batch 4 0 8): 0
Assigned classification CYP1A2 (CYP1A2 [5]; Lab 3, batch 8 0 8): 0
Induction in vitro (CYP3A4 [6]; CYP3A4, PHH): No
Prediction in vivo inducer (CYP3A4 [6]; CYP3A4, PHH): No
Assigned classification CYP3A4 (CYP3A4 [6]; Lab 1, batch 0 6 A): 0
Assigned classification CYP3A4 (CYP3A4 [6]; Lab 1, batch 4 0 8): 0
Assigned classification CYP3A4 (CYP3A4 [6]; Lab 1, batch 8 0 8): 0
Assigned classification CYP3A4 (CYP3A4 [6]; Lab 2, batch 0 6 A): 0
Assigned classification CYP3A4 (CYP3A4 [6]; Lab 2, batch 4 0 8): 0
Assigned classification CYP3A4 (CYP3A4 [6]; Lab 2, batch 8 0 8): 0
Assigned classification CYP3A4 (CYP3A4 [6]; Lab 3, batch 0 6 A): 0
Assigned classification CYP3A4 (CYP3A4 [6]; Lab 3, batch 4 0 8): 0
Assigned classification CYP3A4 (CYP3A4 [6]; Lab 3, batch 8 0 8): 0
Induction in vivo (CYP1A2 [9]): No
Prediction in vivo inducer (CYP1A2 [10]; CYP1A2, HepaRG cells, Cmax/F2 >0.5 criterion): No
Induction in vitro (CYP1A2 [10]; CYP1A2, HepaRG cells, positive in one batch in each of the three laboratories): No
Assigned classification CYP1A2 (CYP1A2 [10]; Lab 1, batch 20): 0
Assigned classification CYP1A2 (CYP1A2 [10]; Lab 1, batch 35): 0
Assigned classification CYP1A2 (CYP1A2 [10]; Lab 1, batch 36): 0
Assigned classification CYP1A2 (CYP1A2 [10]; Lab 2, batch 20): 0
Assigned classification CYP1A2 (CYP1A2 [10]; Lab 2, batch 35): 0
Assigned classification CYP1A2 (CYP1A2 [10]; Lab 2, batch 36): 0
Assigned classification CYP1A2 (CYP1A2 [10]; Lab 3, batch 20): 1
Assigned classification CYP1A2 (CYP1A2 [10]; Lab 3, batch 35): 0
Assigned classification CYP1A2 (CYP1A2 [10]; Lab 3, batch 36): 0
Prediction in vivo inducer (CYP2B6 [11]; CYP2B6, HepaRG cells, listed as Sotalol): No
Prediction in vivo inducer (CYP2B6 [11]; CYP2B6, HepaRG cells, listed as sotalol): correctly predicted
Induction in vitro (CYP2B6 [11]; CYP2B6, HepaRG cells, positive in one batch in each of the three laboratories): No
Assigned classification CYP2B6 (CYP2B6 [11]; Lab 1, batch 20): 0
Assigned classification CYP2B6 (CYP2B6 [11]; Lab 1, batch 35): 0
Assigned classification CYP2B6 (CYP2B6 [11]; Lab 1, batch 36): 0
Assigned classification CYP2B6 (CYP2B6 [11]; Lab 2, batch 20): 0
Assigned classification CYP2B6 (CYP2B6 [11]; Lab 2, batch 35): 0
Assigned classification CYP2B6 (CYP2B6 [11]; Lab 2, batch 36): 0
Assigned classification CYP2B6 (CYP2B6 [11]; Lab 3, batch 20): 0
Assigned classification CYP2B6 (CYP2B6 [11]; Lab 3, batch 35): 0
Assigned classification CYP2B6 (CYP2B6 [11]; Lab 3, batch 36): 0
Induction in vitro (CYP3A4 [12]; CYP3A4, HepaRG cells): No
Prediction in vivo inducer (CYP3A4 [12]; CYP3A4, HepaRG cells): No
Assigned classification CYP3A4 (CYP3A4 [12]; Lab 1, batch 20): 0
Assigned classification CYP3A4 (CYP3A4 [12]; Lab 1, batch 35): 0
Assigned classification CYP3A4 (CYP3A4 [12]; Lab 1, batch 36): 0
Assigned classification CYP3A4 (CYP3A4 [12]; Lab 2, batch 20): 0
Assigned classification CYP3A4 (CYP3A4 [12]; Lab 2, batch 35): 0
Assigned classification CYP3A4 (CYP3A4 [12]; Lab 2, batch 36): 0
Assigned classification CYP3A4 (CYP3A4 [12]; Lab 3, batch 20): 0
Assigned classification CYP3A4 (CYP3A4 [12]; Lab 3, batch 35): 0
Assigned classification CYP3A4 (CYP3A4 [12]; Lab 3, batch 36): 0
Cmax [8, 16]: 2 µM
Cmax [8, 17]: 2 µM
